Data as given in US20050165232A1, “Phenyl substituted imidaopyridines and phenyl substituted benzimidazoles” (priority 2002, published 2005).

Legend:
[1] = target: T1, adenosine A1 (Rattus norvegicus, UniProt P25099); assay: Rat adenosine A1 tissue assay (vas deferens); set-up: species or system Wistar rat
T1 construct: Wistar rat (ca. 275 g) vas deferens were used; from tissue; host or cells: Wistar rat vas deferens
T1 sequence (P25099 1-326): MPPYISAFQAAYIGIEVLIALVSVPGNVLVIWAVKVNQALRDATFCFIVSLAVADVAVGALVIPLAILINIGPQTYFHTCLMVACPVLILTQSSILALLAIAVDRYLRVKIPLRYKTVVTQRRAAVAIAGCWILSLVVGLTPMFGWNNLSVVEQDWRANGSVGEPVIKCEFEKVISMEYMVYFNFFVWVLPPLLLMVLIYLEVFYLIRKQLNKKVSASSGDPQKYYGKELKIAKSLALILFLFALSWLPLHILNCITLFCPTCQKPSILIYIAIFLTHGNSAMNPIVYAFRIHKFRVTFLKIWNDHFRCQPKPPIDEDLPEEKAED
Protocol: An adenosine A1 tissue assay was performed as follows to determine antagonist versus agonist functional activity. […] The vehicle used was 0.1% DMSO, the incubation buffer used was Krebs at pH 7.4, and the incubation time was 5 min at 32° C. The administration volume was 10 μL, the bath volume was 10 mL, and the time of assessment was 5 min using an isometric (gram changes) quantitation method. The criteria for functional agonism was a ≧50% reduction of neurogenic twitch relative to CHA response. The criteria for functional antagonism was a ≧50% inhibition of CHA-induced relaxation.

[2] = target: T2, adenosine A3 receptor (Rattus norvegicus, UniProt P28647); assay: Rat adenosine A3 receptor binding assay; details: radioligand 125I AB-MECA, rat recombinant EBNA cells
T2 construct: expressed in transfected cells; host or cells: EBNA cells
T2 sequence (P28647 1-320): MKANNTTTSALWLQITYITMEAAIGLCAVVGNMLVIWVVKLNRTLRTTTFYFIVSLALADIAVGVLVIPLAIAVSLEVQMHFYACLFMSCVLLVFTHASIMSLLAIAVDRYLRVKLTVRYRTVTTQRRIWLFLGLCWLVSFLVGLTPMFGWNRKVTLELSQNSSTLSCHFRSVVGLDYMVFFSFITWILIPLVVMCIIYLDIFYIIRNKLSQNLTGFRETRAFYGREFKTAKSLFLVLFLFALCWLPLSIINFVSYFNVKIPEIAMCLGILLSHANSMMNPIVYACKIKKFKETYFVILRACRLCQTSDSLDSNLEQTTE
Protocol: Adenosine A3 radioligand binding was performed as follows. Rat recombinant EBNA cells were used with 1 nM ^125I AB-MECA as ligand.

## CCCn1c(=O)c2[nH]c(C3CCCC3)nc2n(CCC)c1=O [DPCPX, 8-cyclopentyl-1,3-dipropylxanthine]
[1]; 10 nM
  antagonist reference response: 87%

## OC[C@H]1O[C@@H](n2cnc3c(NC4CCCCC4)ncnc32)[C@H](O)[C@@H]1O [CHA, N6-(cyclohexyl)adenosine]
[1]; 0.3 μM
  agonist reference response: 100%

## CNC(=O)[C@H]1O[C@@H](n2cnc3c(NCc4ccc(N)cc4)ncnc32)[C@H](O)[C@@H]1O [AB-MECA]
[2]
  Kd: 1.3 nM
